Assay results taken from patent US20240199645A1, “POLYMORPHIC FORMS OF (S)-12-FLUORO-4-(1-METHYL-1H-PYRAZOL-5-YL)-7A,8,13,14-TETRAHYDRO-7H-[1,2,4]TRIAZOLO[4',3':1,6]PYRIDO[3,2-B]BENZOFURO[4,3-FG][1,4]OXAZONINE” (Fulcrum Therapeutics, Inc., priority 2021, published 2024).

Assay: Dynamic vapor sorption (DVS) analysis
Type: physicochemical
Details: between about 2 to about 92% relative humidity (RH); at 25° C.
Procedure: Dynamic vapor sorption (DVS) analysis was performed using a DVS Intrinsic 1. The sample (25 mg) was loaded into a sample pan, suspended from a microbalance and exposed to a humidified stream of nitrogen gas. The sample was held for a minimum of 5 min at each level and only progressed to the next humidity level if there was <0.002% change in weight between measurements (interval: 60 seconds) or 240 min had elapsed.

Row | dynamic vapor sorption (DVS) profile, mass change | DVS mass change expressed as equivalents of water | SMILES
1 | about 0.23 wt. % | – | Cn1nccc1-c1cc2c(n3cnnc13)NCc1c(F)ccc3c1C(CO3)CO2 (stereo in doubt) [Form E, (S)-12-fluoro-4-(1-methyl-1H-pyrazol-5-yl)-7a,8,13,14-tetrahydro-7H-[1,2,4]triazolo[4′,3′:1,6]pyrido[3,2-b]benzofuro[4,3-fg][1,4]oxazonine]
2 | about 0.38 wt. % | – | Cn1nccc1-c1cc2c(n3cnnc13)NCc1c(F)ccc3c1C(CO3)CO2 (stereo in doubt) [Form U, (S)-12-fluoro-4-(1-methyl-1H-pyrazol-5-yl)-7a,8,13,14-tetrahydro-7H-[1,2,4]triazolo[4′,3′:1,6]pyrido[3,2-b]benzofuro[4,3-fg][1,4]oxazonine]
3 | about 6.34 wt. % | about 1.48 eq. water | Cn1nccc1-c1cc2c(n3cnnc13)NCc1c(F)ccc3c1C(CO3)CO2 (stereo in doubt) [Form A, (S)-12-fluoro-4-(1-methyl-1H-pyrazol-5-yl)-7a,8,13,14-tetrahydro-7H-[1,2,4]triazolo[4′,3′:1,6]pyrido[3,2-b]benzofuro[4,3-fg][1,4]oxazonine]
